Results from patent US5070210A, “Novel ketenimines as intermediates for insecticides” (ICI Americas Inc., priority 1990, dated 1991).

Columns and labels:
Assay type in all cases: in vivo
[1] = tested on: Tobacco Budworm [Heliothis virescens (Fabricius)] eggs; assay: Tobacco budworm egg test; conditions: 2-day old eggs, percent in solution
Summary of the method: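 2-day eggs on paper towel, acetone dip, 0.1% and below; petri dish with larval diet, 78° F. Mortality read after control hatch and larval feeding. LC50 = % compound in solution, from dose-mortality curve.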

[2] = tested on: Tobacco Budworm [Heliothis virescens (Fabricius)] larvae; assay: Tobacco budworm contact test; conditions: second-instar larvae, percent in solution, 5 days
Procedure: The compounds in Tables 1 and 2 above were tested for insecticidal activity using the following testing procedures. LC50 values, based on the results of these tests and calculated according to dosage-mortality curves, are expressed in Table 3.
Tobacco Budworm [Heliothis virescens (Fabricius)]:
(a) Contact: Test compounds were diluted in a 50-50 acetone-water solution. Cotton (Gossypium sp.) cotyledons were immersed in the test solutions for 2-3 seconds and placed on a wire screen to dry. The dried leaves were placed in petri dishes containing a moistened piece of filter paper and infested with 5 second-instar tobacco budworm larvae. The dishes were placed in a high humidity chamber for 5 days, and percent mortality of the larvae recorded. Test concentrations ranged from 0.1% downward. The LC-50 values are expressed below in Table 3 under the heading "TBW-C" in terms of percent of the test compound in the solution.

[3] = tested on: Cabbage Looper [Trichoplusia ni (Hubner)]; assay: Cabbage looper insecticidal test; conditions: second-instar larvae, percent in solution; 3-5 days
Summary of the method: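 LC50 values, given as percent test compound in solution, were calculated from dosage-mortality curves. Squash cotyledons were immersed 2-3 s in acetone-water (50-50) dilutions starting at 0.1%, dried on a screen, then infested with five second-instar larvae. Mortality was read 3-5 days on.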

[4] = tested on: Housefly [Musca domestica]; assay: Housefly insecticidal test; conditions: μg per 25 female flies; mortality after 48 hours
Summary of the method: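 Acetone solutions (with 0.01% peanut oil) dried onto dish bottoms, then 25 female flies, 1-2 days old, caged over the residue with sugar water. Mortality scored at 48 hours; LC50 from dosage-mortality curves, in μg per 25 female flies, top level 100 μg.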

[5] = tested on: Aster Leafhopper [Macrosteles fascifrens (Stal)]; assay: Aster leafhopper insecticidal test; conditions: adults/nymphs, percent in solution; 48 hours
Summary of the method: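 Three ~10 cm oat seedlings per cup were dipped 2-3 seconds in 50-50 acetone-water compound solutions, dried, and caged with ten adult/nymph leafhoppers. Mortality was counted after 48 hours at concentrations from 0.05% downward. LC50, as percent compound in solution, came from dosage-mortality curves.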

[6] = tested on: Maize weevil [Sitophilus Zeamais (Motschulsky)]; assay: Maize weevil insecticidal test; conditions: adult weevils, percent in solution; 48 hours
Summary of the method: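 LC50, in percent of compound in solution, was derived from dosage-mortality curves after 48 h at about 25 °C. Ten adult weevils per container fed on four corn seeds briefly immersed in acetone:water (50:50) solutions of up to 0.01% and dried.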

| SMILES | LC50, TBW, E (TBW-E) [1] | LC50, TBW, C (TBW-C) [2] | LC50, CL [3] | LC50, HF [4] | LC50, LH [5] | LC50, MW [6] |
| --- | --- | --- | --- | --- | --- | --- |
| COc1ccc(N=C(OCc2cccc(Oc3ccccc3)c2)C(C)C)c(OC)c1 [Compound 146] | > 0.1% | 0.025% | 0.017% | 40 µg |  |  |
| CC(=O)c1ccc(N=C(OCc2cccc(Oc3ccccc3)c2)C(C)C)cc1 [Compound 147] | > 0.1% | 0.0075% | 0.01% | 10 µg |  |  |
| CC(C)C(=Nc1cccc(Cl)c1)OCc1cccc(Oc2ccc(F)cc2)c1 [Compound 194] | 0.04% | 0.0017% | 0.0005% | 10 µg | 0.0005% | > 0.01% |
| CC(C)C(=Nc1ccc(F)c(Cl)c1)OCc1cccc(Oc2ccc(C#N)cc2)c1 [Compound 196] | > 0.1% | 0.001% | 0.0006% | 17 µg | > 0.05% | > 0.01% |
| CC(C)C(=Nc1cc(F)cc(F)c1)OCc1cccc(Oc2ccc(F)cc2)c1 [Compound 199] | > 0.1% | 0.003% | 0.0006% | 8 µg |  | > 0.01% |
| CC(C)C(=Nc1cccc(C(F)(F)F)c1)OCc1cccc(Oc2ccc(F)cc2)c1 [Compound 202] | > 0.1% | 0.0007% | 0.00024% | 18 µg | 0.0003% | > 0.01% |
| CC(C)(C)C(=Nc1ccc(F)c(Cl)c1)OCc1cccc(Oc2ccc(F)cc2)c1 [Compound 204] | > 0.1% | 0.004% | 0.0023% | > 100 µg |  | > 0.01% |
| CC(C)C(=Nc1ccc(F)cc1F)OCc1cccc(Oc2ccc(F)cc2)c1 [Compound 209] | 0.1% | 0.005% | 0.0007% | 17 µg | 0.001% | > 0.01% |
| CCC(C)C(=Nc1ccc(F)c(Cl)c1)OCc1cccc(Oc2ccc(F)cc2)c1 (stereo not shown) [Compound 210] | 0.045% | 0.0015% | 0.00028% | 35 µg |  | > 0.01% |
| CC(C)C(=Nc1ccc2c(c1)OC(C)(C)O2)OCc1cccc(Oc2ccc(F)cc2)c1 [Compound 219] | 0.027% | 0.004% | 0.00025% | 50 µg |  | > 0.01% |
| CC(C)C(=Nc1ccc(Br)cc1)OCc1cccc(Oc2ccc(F)cc2)c1 [Compound 226] | 0.1% | 0.001% | 0.0005% | 16 µg | 0.002% | 0.009% |
| CC(C)C(=Nc1ccc(I)cc1)OCc1cccc(Oc2ccc(F)cc2)c1 [Compound 234] | 0.09% | 0.0013% | 0.00045% | 38 µg | 0.003% | > 0.01% |
| CC(C)C(=Nc1ccc(F)c(Cl)c1)OCc1cccc(Oc2ccc(Br)cc2)c1 [Compound 238] | 0.05% | 0.0004% | 0.0002% | 25 µg | > 0.05% | > 0.01% |
| CC(C)C(=Nc1ccc(F)c(Br)c1)OCc1cccc(Oc2ccc(F)cc2)c1 [Compound 253] | > 0.1% | 0.0005% | 0.00013% | 10 µg | 0.003% | > 0.01% |
| CC(C)C(=Nc1cccc(C(F)(F)F)c1)OCc1ccc(F)c(Oc2ccc(Cl)cc2)c1 [Compound 266] | 0.06% | 0.0007% | 0.00016% | 10 µg |  |  |
| C=C(C)C(=Nc1ccc(C(F)(F)F)cc1)OCc1ccc(F)c(Oc2ccc(Cl)cc2)c1 [Compound 432] | 0.032% | < 0.1% | 0.0012% | < 100 µg |  | > 0.01% |
